Consider 6 compounds from patent US9988390B2, “Pyrimidone derivatives and their use in the treatment, amelioration or prevention of a viral disease” (F. Hoffmann-La Roche AG, priority 2015, dated 2018).

The subject of the experiment is influenza A virus (A/WSN/33 NanoLuc reporter virus) in A549 cells. The experiment can be described thus: microbe, parasite or virus in culture. It counts as cell-based. To be noted: A549, 24 h, read-out: IC50 values of viral replication inhibition in a cell-based Luciferase Reporter Assay (LRA). For orientation: Reporter assays use an easily measured gene product as a stand-in for the process of interest.
Take `CSc1nc(=O)c(O)c2n1[C@@H](C1c3ccccc3CCc3ccccc31)CN(C(C)C)C2=O` [Ia-30, (4S)-4-(6,11-Dihydro-5H-dibenzo[2,1-b:1′,2′-e][7]annulen-11-yl)-9-hydroxy-2-isopropyl-6-methylsulfanyl-3,4-dihydropyrazino[1,2-c]pyrimidine-1,8-dione]: the IC50 (in general, the point on the concentration scale where inhibition reaches its midpoint) was found to be 17 nM.

For the compound `CC(C)N1C[C@H](C(c2ccccc2)c2ccccc2)n2c(NS(C)(=O)=O)nc(=O)c(O)c2C1=O` [Example 1a-17, N-[(4S)-4-benzhydryl-9-hydroxy-2-isopropyl-1,8-dioxo-3,4-dihydropyrazino[1,2-c]-pyrimidin-6-yl]methanesulfonamide], the IC50 came to 1670 nM.

Consider `CC[S+]([O-])c1nc(=O)c(O)c2n1[C@@H](C(c1ccccc1)c1ccccc1)CN(C(C)C)C2=O` (stereo partly drawn) [Ia-32, (4S)-4-Benzhydryl-6-ethylsulfinyl-9-hydroxy-2-isopropyl-3,4-dihydropyrazino[1,2-c]pyrimidine-1,8-dione], for which the IC50 worked out at 117 nM.

On to `CC(C)N1C[C@H](C(c2ccccc2)c2ccccc2)n2c(-n3cnnc3)nc(=O)c(O)c2C1=O` [Ia-44, (4S)-4-Benzhydryl-9-hydroxy-2-isopropyl-6-(1,2,4-triazol-4-yl)-3,4-dihydropyrazino[1,2-c]pyrimidine-1,8-dione], for which the IC50 amounted to 130 nM.

Regarding `CC(C)Nc1nc(=O)c(O)c2n1[C@@H](C(c1ccccc1)c1ccccc1)CN(C(C)C)C2=O` [Ia-35, (4S)-4-Benzhydryl-9-hydroxy-2-isopropyl-6-(isopropylamino)-3,4-dihydropyrazino[1,2-c]pyrimidine-1,8-dione], the IC50 came to 324 nM.

Consider `CC(C)N1CC(C2c3cccc(F)c3CCc3c(F)cccc32)n2c(O)nc(=O)c(O)c2C1=O` (stereo not drawn) [Ia-25, 4-(4,7-Difluoro-6,11-dihydro-5H-dibenzo[1,3-b:3′,1′-e][7]annulen-11-yl)-6,9-dihydroxy-2-isopropyl-3,4-dihydropyrazino[1,2-c]pyrimidine-1,8-dione], for which the IC50 is 86 nM.
